Results reported in EP2924037A1, “QUINAZOLINE DERIVATE AND USE THEREOF AS APOPTOSIS INHIBITOR” (Linx Pharmaceutical Co., Ltd., priority 2012, dated 2013).

Legend:
[1] = tested on: E. Coli O111:B4; assay: Oxford Cup test of antibiotic activity; assay type: cell-based; details: after 24 hrs; terazosin 0.2µg, 2µg, 200µg, 2mg; ampicillin 2mg
Experimental: The antibiotic activity of terazosin was measured by Oxford Cup test. Oxford Cups containing different concentrations of terazosin were placed in the petri dish wherein E. Coli O111:B4 was cultured on LB medium. The effects of terazosin and ampicillin on the growth of E. Coli were examined after 24 hrs.

[2] = tested on: LPS-induced sepsis model
Experimental: Male BALB/C mice (20±3g) from Vital River (Beijing, China) were housed in the Animal Center of Peking University. […] For the LPS model of sepsis, each mouse was injected with LPS (13.5 mg/kg, i.p.) once. […] Terazosin (0.4 mg/kg or 0.04 mg/kg) or saline was then injected (i.p.) 1.5 hours after LPS infusion. Lethality was recorded every 12 hours for 7 days.
24 hrs after LPS injection, one thymus from each mouse was collected. Then, the genomic DNA of thymus was extracted with a genomic DNA purification kit (Biofuture, Beijing, China). DNA fragmentation was assessed on a DNA agarose gel.

[3] = tested on: E. coli induced sepsis model; assay: E. coli induced sepsis model in mice; assay type: in vivo, BALB/C mice; details: 0.4 mg/kg, 1.5 hours following injection of E. coli
Experimental: Terazosin was tested in a model of septicemia caused by E. coli injected. […] To determine the potential antibacterial effect, the growth of E. coli was examined in the presence of terazosin.

[4] = tested on: RAW264.7 macrophage cells; assay: LPS and IFNγ induced apoptosis, Annexin V staining; assay type: cell-based; details: Mus musculus, LPS (2 µg/ml) and IFNγ (50 U/ml), read-out: reduction of apoptosis
Experimental: Cells were stained with Annexin V to examine apoptosis (Fig. 4). […] Terazosin (4 µg/ml) can reduced 50% of apoptosis (Fig. 4).
The RAW 264.7 cells were cultured in the DMEM medium (Gibco) supplemented with 10% FBS (Gibco), streptomycin (0.1 g/L) and penicillin (0.06 g/L) (Amresco). To induce apoptosis, RAW 264.7 cells at 90% confluence were incubated in DMEM (10% FBS) containing 2 µg/mL lipopolysaccharide (LPS; Escherichia coli O111:B4, Sigma) for 24 hours.
(§1) RAW 264.7 cells were cultured in the DMEM medium (Gibco) supplemented with 5% FBS, streptomycin (0.1 mg/mL) and penicillin (0.06 mg/mL). To induce apoptosis, 2 µg/mL lipopolysaccharide (LPS; Escherichia coli O111:B4, Sigma-Aldrich) and IFN-γ (50 U/mL, Peprotech) were added, and a predetermined concentration of the testing compound was added at the same time. Cell death was assessed by Western blot with an anti-active Caspase 3 antibody (#9661, Cell Signaling). β-Actin (Boster) was used as internal control for protein loading. The ratio of Caspase 3/β-Actinwas was used to assess apoptosis.

[5] = tested on: HS>rpr Drosophila; assay: Compound screen in the apoptotic HS>rpr Drosophila model; assay type: in vivo; details: heat shock at 37 °C; 25 compounds screened
Experimental: HS-Gal4 (a promoter that can be expressed in whole body and activated by heat), can promote expression of any genes having repeated UAS (upstream activating sequence) at the 5' region. The HS-Gal4 and UAS-Reaper Drosophila were crossed at 18 °C to produce hybrids referred to as HS> rpr, and the female offspring underwent normal development. However, with heat shock for 2-3 hours at 37 °C, about 50-70% of the offspring died after 14-24 h (Fig. 1). 25 compounds were selected (Fig. 2) to determine their impact on the lethal rate of HS> rpr.
UAS-rpr and HS-Gal4 flies were obtained from Bloomington Stock Center in the US. The F1 progenies (HS>rpr) from the cross of these two lines were raised at 18 °C for the compound screen. Compounds were dissolved in 5% sucrose at the concentrations used in the culture media for Cmap. The compound solution (150 µL) was added to a vial containing three layers of filter papers. Twenty adult HS>rpr flies aged 1-3 days were then placed into each vial for 24 hours. The flies were heat shocked at 37 °C for 2 hrs. The survival rate was calculated 12 hrs after the heat shock.

[6] = Blood pressure of injected mice; assay type: in vivo; details: 0.08 mg/kg
Experimental: (§2) Because E. coli and LPS models can only simulate Gram-negative bacteria infections, terazosin was further tested in a cecal ligation and puncture (CLP) model, which is believed to be the classic standard model of experimental septicemia (Parker and Watkins, 2001; Wichterman et al., 1980). First, 0.4 mg/kg of terazosin (same concentration as used in the LPS model) was tested. […] This may be due to severe cardiac dysfunction and hypotension induced by CLP. Thus, the blood pressure lowering function of the drug may have masked its anti-apoptotic effect. […] In addition, the combination of terazosin and antibiotics was tested. Terazosin was combined with amoxicillin and clavulanate potassium (Co-Am, amoxicillin and clavulanate potassium in a weight ratio of 4: 1, by way of a specific example elsewhere or instance mentioned in the present invention, also means a 4 : 1 ratio. Skilled in the art can understand, when a combination of amoxicillin and clavulanate potassium is referred to, the weight ratio of amoxicillin and clavulanate potassium can be from 1:1 to 10:1, especially 1:1-7:1, for example, about 1:1, about 4:1, about 7:1).

[7] = tested on: sepsis models (LPS; Cecal Ligation and Puncture); assay: Effects against sepsis (LPS and CLP models), 7-day survival; assay type: in vivo, BALB/C mice; details: i.p. once a day for 3 days at 0.4 mg/kg; 7-day period; P < 0.05 compared to negative controls
Experimental: After 1.5 hours, compounds were injected (i.p.) at a predetermined concentration. Mouse survival was examined every 12 hours for 7 days. Statistical significance of the difference in the survival rates was analyzed.
Another model is Cecal Ligation and Puncture (CLP) model of sepsis. Mice were anesthetized. A 1.5-2.0 cm long abdominal midline incision was made and the cecum was exposed. After ligation 5 mm from the cecal tip, the cecum was punctured once with a 22-gauge needle, and some stool was squeezed out. Then the cecum was put back into the abdomen and the abdomen was closed by running suture. After 1.5 hours, compounds were injected (i.p.) at a predetermined concentration. Mouse survival was examined every 12 hours for 7 days. Statistical significance of the difference in the survival rates was analyzed.
These compounds were individually injected (i.p.) once a day for 3 days at 0.4 mg/kg.

[8] = tested on: CLP model of sepsis; assay type: in vivo, BALB/C mice
Experimental: as §2
For the CLP model of sepsis, mice were anesthetized with chloral hydrate (300 mg/kg, i.p.). Then, a 1.5-2.0 cm long abdominal midline incision was made and the cecum was exposed. […]

[9] = tested on: active form of caspase-3 in Raw 264.7 cells; assay: Western blot of the active form of caspase-3 in cells treated with LPS and IFNγ; assay type: cell-based
Experimental: CLP was done one week after the injection.
For Western blot, an anti-active Caspase 3 antibody (#9664, Cell Signaling) was used. The anti-actin antibody was purchased from Wuhan Boster company, China.
as §1

[10] = Effect on serum glucose in mice; assay type: in vivo; details: Mus musculus, ip, 18 h, read-out: reduction of the serum glucose level
Experimental: Mice were injected terazosin (0.4 mg/kg i.p.) once. The serum glucose level of the mice was measured 18 hours later. […] By the same method, exemplary compounds Co.1, Co.3, Co.7, Co.9, Co.13, Co.16, Co.19, Co.24, Co.27 and Co.32 as described in the present invention were all shown to be effective to reduce the serum glucose level by 20% to 50%.

**Q.** With COc1cc2nc(N3CCN(C(=O)C4CCCO4)CC3)nc(N)c2cc1OC (stereo not drawn) [Co.33, (4-(4-amino-6,7-dimethoxyquinazolin-2-yl)piperazin-1-yl)(tetrahydrofuran-2-yl)methanone] as the compound, how does the “growth of E. coli (inhibition zones)” value [1] read?
**A.** cannot inhibit the growth of E. coli

**Q.** And the “effect in later phases of septicemia (survival)” value ([2]; injected at 12 hours after LPS treatment (0.04 mg/kg per Fig. 6))?
**A.** satisfactory results

**Q.** What about the “DNA ladders in genomic DNA of the thymus” value ([2]; mice treated with LPS and terazosin vs LPS, 24 hrs after LPS injection) of the same compound?
**A.** significantly reduced

**Q.** And the “protection from E. coli-induced death” value [3]?
**A.** can protect mice from E. coli-induced death

**Q.** And the inhibition at 4 µg/mL [4]?
**A.** 50%

**Q.** And the “survival rate of HS>rpr Drosophila” value [5]?
**A.** significantly improve the survival rate

**Q.** What about the “blood pressure of the injected mice” value [6] of the same compound?
**A.** completely normal

**Q.** And the survival against sepsis [7]?
**A.** significantly increased survival against sepsis

**Q.** What about the “survival of mice in the CLP model” value ([8]; 0.08 mg/kg, injected at 1.5 hours and 24 hours after surgery) of the same compound?
**A.** significantly promoted the survival of mice

**Q.** And the “death of mice in the CLP model versus control” value ([8]; mouse, in vivo)?
**A.** died faster than the control group

**Q.** And the “active form of caspase-3” value [9]?
**A.** decreased

**Q.** What about the inhibition in vivo at 0.4 mg/kg [10] of the same compound?
**A.** 30%
